We go through 7 compounds from patent US8940724B2, “Quinoline derivitives and their uses” (Amgen Inc., priority 2009, dated 2015).

Assay [1] relates to model of systemic lupus erythematosis. The settings on record: in vivo; cited from earlier work.
In assay [2] the test system is mouse model of rheumatoid arthritis. As to conditions: in vivo; cited from earlier work.
Assay [3] has as its target T1, p110δ (Homo sapiens, UniProt O00329).
T1 sequence (O00329 1-1044): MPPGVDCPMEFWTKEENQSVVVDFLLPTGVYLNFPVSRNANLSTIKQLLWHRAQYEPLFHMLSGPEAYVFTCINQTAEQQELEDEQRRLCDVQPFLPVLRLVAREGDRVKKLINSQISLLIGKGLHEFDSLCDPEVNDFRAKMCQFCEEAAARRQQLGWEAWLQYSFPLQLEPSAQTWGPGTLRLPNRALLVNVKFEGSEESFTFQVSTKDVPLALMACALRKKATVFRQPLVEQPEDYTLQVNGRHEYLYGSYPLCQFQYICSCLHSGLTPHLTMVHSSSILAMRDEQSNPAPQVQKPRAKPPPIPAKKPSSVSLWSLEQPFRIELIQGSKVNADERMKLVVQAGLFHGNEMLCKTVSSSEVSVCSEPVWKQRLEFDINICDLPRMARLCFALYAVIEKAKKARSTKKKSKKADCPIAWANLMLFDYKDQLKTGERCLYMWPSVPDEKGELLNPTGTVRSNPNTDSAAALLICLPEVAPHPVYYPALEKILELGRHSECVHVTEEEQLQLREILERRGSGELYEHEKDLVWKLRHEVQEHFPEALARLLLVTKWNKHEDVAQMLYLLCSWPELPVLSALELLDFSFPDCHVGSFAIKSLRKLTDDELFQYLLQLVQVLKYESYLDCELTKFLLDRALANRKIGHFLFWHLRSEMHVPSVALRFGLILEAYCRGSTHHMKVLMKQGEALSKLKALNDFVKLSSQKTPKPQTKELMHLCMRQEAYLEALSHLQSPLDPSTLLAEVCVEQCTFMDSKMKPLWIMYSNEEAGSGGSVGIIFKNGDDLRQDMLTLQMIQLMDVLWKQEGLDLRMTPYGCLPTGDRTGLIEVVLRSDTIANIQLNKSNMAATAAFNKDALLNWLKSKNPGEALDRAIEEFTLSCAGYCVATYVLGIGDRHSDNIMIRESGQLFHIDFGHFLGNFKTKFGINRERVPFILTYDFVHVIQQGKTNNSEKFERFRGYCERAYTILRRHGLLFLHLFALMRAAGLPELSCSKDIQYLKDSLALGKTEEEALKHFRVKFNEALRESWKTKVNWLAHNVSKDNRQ
The settings on record: cited from earlier work.

The test system of assay [4] is protein kinases. As to conditions: cited from earlier work.
Assay [5] concerns ovalbumin-induced airway inflammation. The settings on record: cited from earlier work.
Assay [6] has as its target T2, PI3Kδ (Homo sapiens, UniProt O00329).
T2 construct: Full length p110 subunits of PI3k α, β and δ, N-terminally labeled with polyHis tag; polyHis (N); made in house; host or cells: Sf9 insect cells (baculovirus)
The assay can be described thus: PI3Kδ Alphascreen assay. In kind it is biochemical.

SMILES strings stand for the structures.

T2 sequence (P27986 whole entry partner, one chain of several): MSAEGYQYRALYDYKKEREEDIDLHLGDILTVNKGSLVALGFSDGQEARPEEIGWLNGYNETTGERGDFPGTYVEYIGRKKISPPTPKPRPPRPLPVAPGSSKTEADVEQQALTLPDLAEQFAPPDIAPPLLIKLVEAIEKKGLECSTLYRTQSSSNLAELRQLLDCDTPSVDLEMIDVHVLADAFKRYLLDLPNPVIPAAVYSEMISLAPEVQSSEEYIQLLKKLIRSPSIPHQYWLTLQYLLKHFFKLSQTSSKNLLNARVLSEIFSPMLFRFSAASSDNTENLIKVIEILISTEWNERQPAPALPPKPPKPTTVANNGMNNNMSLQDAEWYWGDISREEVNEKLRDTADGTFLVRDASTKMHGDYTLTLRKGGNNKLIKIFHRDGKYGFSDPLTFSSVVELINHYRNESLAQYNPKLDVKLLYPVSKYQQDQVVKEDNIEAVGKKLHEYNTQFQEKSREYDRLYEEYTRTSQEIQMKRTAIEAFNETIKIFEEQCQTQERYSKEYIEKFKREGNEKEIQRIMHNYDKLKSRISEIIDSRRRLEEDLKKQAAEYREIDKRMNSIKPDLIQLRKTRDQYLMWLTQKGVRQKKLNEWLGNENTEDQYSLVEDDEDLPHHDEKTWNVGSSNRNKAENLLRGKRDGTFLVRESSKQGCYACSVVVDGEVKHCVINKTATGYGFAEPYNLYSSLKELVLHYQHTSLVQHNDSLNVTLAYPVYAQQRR

`O=C1NC(=O)/C(=C\c2ccc3nccnc3c2)S1` [AS 605240]: the “onset of disease in a model of systemic lupus erythematosis” value in assay [1] is “delay onset of disease”. The “efficacy in a mouse model of rheumatoid arthritis” value in assay [2] is on record as “efficacious”.

In the case of `Cc1ccccc1-n1c(Cn2cnc3c(N)ncnc32)nc2cccc(C)c2c1=O` [IC87114], in assay [3], the “inhibits p110δ” value is on record as “high nanomolar range (triple digit)”. Further, the “activity against any protein kinases tested” value in assay [4] is given as “no activity”. For the same compound, in assay [5], the “inflammation and disease in a murine model of asthma” value is “significantly ameliorate inflammation and disease”.

In assay [6], `Cc1c(N2CCN(C(=O)OC(C)(C)C)CC2)nc2cc(F)cc(F)c2c1Nc1cc(N2CCOCC2)cnc1N1CCOCC1` [tert-butyl 4-(4-((2,5-di-4-morpholinyl-3-pyridinyl)amino)-5,7-difluoro-3-methyl-2-quinolinyl)-1-piperazinecarboxylate] displayed a Ki of 34.1 nM.

Turning to `Cc1c(N2CCN(C(=O)OC(C)(C)C)CC2)nc2cc(F)cc(F)c2c1Nc1cncc(N2CCOCC2)c1` [tert-butyl 4-(5,7-difluoro-3-methyl-4-((5-(4-morpholinyl)-3-pyridinyl)amino)-2-quinolinyl)-1-piperazinecarboxylate], the Ki in assay [6] was determined as 353 nM.

The compound `Cc1c(N2CCN(C(=O)OC(C)(C)C)[C@H](C)C2)nc2cc(F)cc(F)c2c1Nc1cncc(N2CCOCC2)c1` [tert-butyl (2R)-4-(5,7-difluoro-3-methyl-4-((5-(4-morpholinyl)-3-pyridinyl)amino)-2-quinolinyl)-2-methyl-1-piperazinecarboxylate] came in with an inhibitory constant (Ki) in assay [6] of 832 nM.

With `Cc1c(N2CCN(C(=O)OC(C)(C)C)[C@@H](C)C2)nc2cc(F)cc(F)c2c1Nc1cncc(N2CCOCC2)c1` [tert-butyl (2S)-4-(5,7-difluoro-3-methyl-4-((5-(4-morpholinyl)-3-pyridinyl)amino)-2-quinolinyl)-2-methyl-1-piperazinecarboxylate], the inhibition constant (Ki) in assay [6] was found to be 112 nM.

With `Cc1c(N2CCN(C(=O)OC(C)(C)C)C[C@@H]2C)nc2cc(F)cc(F)c2c1Nc1cncc(N2CCOCC2)c1` [tert-butyl (3S)-4-(5,7-difluoro-3-methyl-4-((5-(4-morpholinyl)-3-pyridinyl)amino)-2-quinolinyl)-3-methyl-1-piperazinecarboxylate], affinity in assay [6] was put at a Ki of 358 nM.
